# Laboratory results reported in US20170146519A1, “STING AGONISTS AND METHODS OF SELECTING STING AGONISTS” (priority 2015, published 2017).
# How the values were obtained:
# [1] = tested on: IRF3/IFN-dependent genes in THF; assay type: cell-based, human
# [2] = tested on: IRF3 S386 phosphorylation; assay type: cell-based, human
# [3] = tested on: human peripheral blood mononuclear cells (PBMCs); assay type: cell-based
# IRF3 phosphorylation = experiment: Immunoblot of IRF3 phosphorylation in RAW264.7 cells; assay type: cell-based, mouse; conditions: RAW264.7, 100 μM DMXAA
# From the text: (§1) Multiple molecular analogs of G10 were thus constructed in an attempt to identify one that is active in both human and mouse cells. While this allowed characterization of essential and nonessential moieties within the molecule (FIG. 17), no derivatives were identified that were active across species. […] As such, the compound has been explored for multiple immunotherapeutic uses including anti-angiogenesis (Cao Z et al, Cancer Res 61, 1517-1521 (2001); incorporated by reference herein), vaccine adjuvanticity (Tang C K et al, PLoS ONE 8, e60038 (2013); incorporated by reference herein), anti-tumor immunology and antiviral activity (Guo F et al, Antimicrob Agents Chemother 59, 1273-1281 (2015); incorporated by reference herein). Patterns of DMXAA-stimulated innate immune activation in murine cells were then explored to evaluate their resemblance with those induced by G10 in human cells. FIG. 11A illustrates that DMXAA-induced IRF3 phosphorylation in RAW264.7 macrophage-like cells is detectable by 1 h post-treatment. […]
# [4] = tested on: innate antiviral genes IFNβ, ISG15, IFIT2, Viperin; experiment: qPCR of innate antiviral genes in RAW264.7 cells; assay type: cell-based, mouse; conditions: RAW264.7, 8 h, range of DMXAA concentrations
# From the text: as §1
# Total RNA was isolated from cells and DNased using a DNA Free RNA Isolation kit according to the manufacturer's protocol (Zymo Research) and quantified by UV spectrometry. […]
# [5] = tested on: Chikungunya virus (CHIKV); experiment: Mouse model of CHIKV infection, serum viral titers; assay type: in vivo, C57Bl/6J mice
# [6] = tested on: IRF3/IFN-dependent luciferase (LUC) in THF-ISRE; assay type: cell-based, human
# [7] = tested on: NF-κB-dependent LUC in THF reporter cells; assay type: cell-based, human
# [8] = tested on: NF-κB-dependent genes (IL8, IL1β, MIP1α) in THF; assay type: cell-based, human
# [9] = tested on: Chikungunya virus (CHIKV); experiment: microbe, parasite or virus in culture; assay type: cell-based
# [10] = tested on: Venezuelan Equine Encephalitis Virus (VEEV); experiment: microbe, parasite or virus in culture; assay type: cell-based
# Vaccinia Virus (VACV) = assay type: cell-based
# West Nile Virus (WNV) = assay type: cell-based
# Sindbis virus (SINV) = assay type: cell-based; conditions: 48 h
# human STING-CTD = biological target: T1, human STING-CTD (Homo sapiens, UniProt Q86WV6); experiment: Thermal shift assay (differential scanning fluorimetry), human STING-CTD; assay type: binding; conditions: 1 μg recombinant protein, SYPRO Orange, various concentrations
# T1 construct: human STING-C-terminal domain (CTD; AA 137-379); 6xHIS; made in house; host or cells: E. coli BL21 (DE3)pLysS
# mouse STING-CTD = biological target: T2, mouse STING-CTD (Mus musculus, UniProt Q3TBT3); experiment: Thermal shift assay (differential scanning fluorimetry), mouse STING-CTD; assay type: binding; conditions: 1 μg recombinant protein, SYPRO Orange, various concentrations
# T2 construct: mouse STING-CTD (AA 137-378); 6xHIS; made in house; host or cells: E. coli BL21 (DE3)pLysS
# T2 sequence (Q3TBT3 137-378): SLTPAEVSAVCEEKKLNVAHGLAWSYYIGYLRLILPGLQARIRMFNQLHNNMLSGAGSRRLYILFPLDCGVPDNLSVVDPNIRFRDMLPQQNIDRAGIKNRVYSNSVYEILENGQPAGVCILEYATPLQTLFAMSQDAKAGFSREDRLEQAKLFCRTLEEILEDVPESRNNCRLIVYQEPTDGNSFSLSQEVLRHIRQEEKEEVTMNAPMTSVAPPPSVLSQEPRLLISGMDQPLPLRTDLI
# THP-1 cells = assay type: cell-based, human
# Mx2 and ISG56 proteins = assay type: cell-based, human
# [11] = tested on: human umbilical microvascular endothelial cells; assay type: cell-based
# [12] = tested on: secreted bioactive type I or III interferon
# T1 sequence (Q86WV6 137-379): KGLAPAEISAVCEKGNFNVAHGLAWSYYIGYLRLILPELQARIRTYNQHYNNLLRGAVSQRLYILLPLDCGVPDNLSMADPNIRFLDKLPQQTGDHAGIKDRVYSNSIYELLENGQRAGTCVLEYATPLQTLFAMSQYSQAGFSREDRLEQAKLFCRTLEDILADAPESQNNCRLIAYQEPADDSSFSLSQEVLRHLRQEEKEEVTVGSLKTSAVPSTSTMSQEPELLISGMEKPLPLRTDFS
structure (smiles),measurement,setting,value
"Nc1nc2c(ncn2[C@@H]2O[C@@H]3COP(=O)(O)O[C@H]4[C@@H](O)[C@H](n5cnc6c(N)ncnc65)O[C@@H]4COP(=O)(O)O[C@@H]2[C@@H]3O)c(=O)[nH]1 [2′3′-cGAMP, reference compound]","mRNA synthesis of IFIT1, IFIT2, ISG15, Viperin, OAS, Mx2 over a concentration range, compared with G10",[1],stronger mRNA synthesis
same,IRF3 S386 phosphorylation in cells lacking STING,[2],absence of IRF3 S386 phosphorylation
same,IRF3 phosphorylation in cells lacking IPS-1,[2],remains intact
same,time post exposure at which phosphorylation of IRF3 S386 is detectable,[2],1 h
same,"expression of IFIT1, IFIT2, IFNβ, ISG15, OAS and Viperin mRNA in PBMC",[3],similarly capable of activating transcription of these genes
"Cc1ccc2c(=O)c3cccc(CC(=O)O)c3oc2c1C [DMXAA, 5,6-dimethylxanthenone-4-acetic acid]",time post-treatment at which IRF3 phosphorylation is detectable,IRF3 phosphorylation,≤ 1 h
same,"transcription of IFNβ, ISG15, IFIT2 and Viperin",[4],dose-dependent transcription
same,serum associated CHIKV at 72 h post infection,"[5]; 25 mg/kg intraperitoneally 3 h pre-infection, 1000 PFU CHIKV",undetectable by plaque assay
same,serum associated CHIKV at 72 h post infection,[5]; 25 mg/kg intraperitoneally 6 h post infection,still undetectable
same,serum associated CHIKV at 72 h post infection,"[5]; mouse, in vivo",diminished relative to DMSO-treated animals but this difference was not statistically significant
"O=C(NCc1ccco1)c1ccc2c(c1)N(Cc1c(F)cccc1Cl)C(=O)CS2 [G10, 4-(2-chloro-6-fluorobenzyl)-N-(furan-2-ylmethyl)-3-oxo-3,4-dihydro-2H-benzo[b][1,4]thiazine-6-carboxamide]",IFN/IRF3-dependent LUC expression,[6],able to induce LUC expression in a dose-dependent manner
same,IRF3/IFN-dependent LUC expression in cells lacking IRF3,[6],abrogated
same,IRF3/IFN-dependent LUC expression in cells lacking STAT1,[6],induce LUC expression in the absence of STAT1
same,IRF3/IFN-dependent LUC induction in cells lacking IPS-1,[6],strong LUC induction
same,IRF3/IFN-dependent LUC induction in cells lacking STING,[6],fail to activate appreciable LUC
same,LUC signal in high-throughput screen,[6],third highest signal of all those screened
same,NF-κB-dependent LUC transcription,[7],no G10-associated stimulation of NF-κB-dependent transcription was detected
same,IFNβ and IFNλ1 mRNA transcription,[1],leads to transcription of both IFNβ and IFNλ1 mRNAs
same,"ISG54, ISG15 and Viperin mRNA in cells lacking IPS-1",[1],highly transcribed
same,"ISG54, ISG15 and Viperin mRNA in cells lacking STING",[1],remain comparatively unstimulated
same,Mx2 and OAS mRNA induction,[1],substantial induction
same,"mRNA of IRF3/IFN-dependent genes (ISG54, ISG56, ISG15, Viperin)",[1],led to transcription of cellular genes triggered by IRF3/IFN-dependent signaling
same,"mRNA synthesis of endogenous NF-κB-dependent genes (IL8, IL1β, MIP1α)",[8],failed to stimulate mRNA synthesis
same,CHIKV replication in cells lacking IRF3,[9],ability of G10 to block replication of CHIKV and VEEV is lost
same,reduction of CHIKV replication,[9],by over three logs
same,CHIKV replication in cells lacking IPS-1,[9]; 48 h,diminishes replication of all three virus types by multiple logs
same,CHIKV replication in cells lacking STING,[9]; 48 h,ability of G10 to block virus replication is absent
same,IC90,"[9]; Chikungunya virus, read-out: IC90 CHIKV replication",8.01 µM
same,VEEV replication in cells lacking IRF3,[10],ability of G10 to block replication of CHIKV and VEEV is lost
same,VEEV replication in cells lacking IPS-1,[10]; 24 h,diminishes replication of all three virus types by multiple logs
same,VEEV replication in cells lacking STING,[10]; 24 h,ability of G10 to block virus replication is absent
same,IC90,"[10]; Venezuelan equine encephalitis virus, read-out: IC90 VEEV replication",24.6 µM
same,reduction of VACV growth,Vaccinia Virus (VACV),by approximately one log
same,reduction of WNV growth,West Nile Virus (WNV),by less than one log
same,SINV replication in cells lacking IPS-1,Sindbis virus (SINV),diminishes replication of all three virus types by multiple logs
same,IRF3 S386 phosphorylation in cells lacking STING,[2],elimination of G10-induced IRF3 S386 phosphorylation
same,IRF3 phosphorylation in cells lacking IPS-1,[2],functional
same,phosphorylation of IRF3 S386,[2],stimulates phosphorylation of IRF3
same,time post exposure at which phosphorylation of IRF3 S386 is detectable,[2],30 m
same,thermal stability of purified human STING-CTD,human STING-CTD,did not increase the protein's thermal stability
same,thermal stability of purified mouse STING-CTD,mouse STING-CTD,did not increase the protein's thermal stability
same,IRF3 activation or IRF3-dependent gene expression in THP-1,THP-1 cells,does not induce IRF3 activation or IRF3-dependent gene expression
same,synthesis of Mx2 and ISG56 proteins,Mx2 and ISG56 proteins,capable of triggering synthesis of Mx2 and ISG56 proteins
same,"expression of IFIT1, IFIT2, IFNβ, ISG15, OAS and Viperin mRNA in PBMC",[3],to degrees that were proportional to compound concentration
same,transcription of NF-κB-dependent genes MIP1α and IL1β in PBMC,[3],also transcriptionally induced
same,"expression of IRF3-, IFN- and NF-κB-dependent genes in endothelial cells",[11],"responded to G10 exposure by expressing IRF3-, IFN-, and NF-κB-dependent genes"
same,cytotoxicity,THF cells,low cytotoxicity even at high concentrations
same,IFN secretion by cells lacking IPS-1,[12],significantly diminished relative to wild type cells
same,IFN secretion by cells lacking STING,[12],failed to secrete IFN
same,IFN secretion by wild type THF cells,[12],IFN secretion was detected
